Test results as given in PubChem BioAssay AID1963875 (Molecular Pharmacology Branch, DTP, NCI, 2024).

Test system: KRAS-mutant PDC complex spheroid viability
Experiment: Anticancer human tumor 186277-243-T-J2-PDC patient-derived colon adenocarcinoma cell line growth inhibition [KRAS2]
Conditions: for IC50: curve of first compound; for viability, T/C: stronger effect = lower value
Outline: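 Combination screen of spheroid viability in tumor-cell co-cultures with endothelial (HUVEC) and mesenchymal stem cell stroma. Each agent was tested in half-log dilutions, topping at clinical Cmax or at 10 microM without a known Cmax.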

[1] = second compound 0.1 µM, first compound 0.0316 µM
[2] = second compound 0.1 µM, first compound 0.1 µM
[3] = second compound 0.1 µM, first compound 0.316 µM
[4] = second compound 0.1 µM, first compound 1 µM
[5] = second compound 0.1 µM, first compound 3.16 µM
[6] = second compound 0.1 µM, first compound 10 µM
[7] = second compound 0.316 µM, first compound 0.0316 µM
[8] = second compound 0.316 µM, first compound 0.1 µM
[9] = second compound 0.316 µM, first compound 0.316 µM
[10] = second compound 0.316 µM, first compound 1 µM
[11] = second compound 0.316 µM, first compound 3.16 µM
[12] = second compound 0.316 µM, first compound 10 µM
[13] = second compound 1 µM, first compound 0.0316 µM
[14] = second compound 1 µM, first compound 0.1 µM
[15] = second compound 1 µM, first compound 0.316 µM
[16] = second compound 1 µM, first compound 1 µM
[17] = second compound 1 µM, first compound 3.16 µM
[18] = second compound 1 µM, first compound 10 µM
[19] = second compound 3.16 µM, first compound 0.0316 µM
[20] = second compound 3.16 µM, first compound 0.1 µM
[21] = second compound 3.16 µM, first compound 0.316 µM
[22] = second compound 3.16 µM, first compound 1 µM
[23] = second compound 3.16 µM, first compound 3.16 µM
[24] = second compound 3.16 µM, first compound 10 µM
[25] = second compound 10 µM, first compound 0.0316 µM
[26] = second compound 10 µM, first compound 0.1 µM
[27] = second compound 10 µM, first compound 0.316 µM
[28] = second compound 10 µM, first compound 1 µM
[29] = second compound 10 µM, first compound 3.16 µM
[30] = second compound 10 µM, first compound 10 µM
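For viability, T/C in this document: viability read after seven days of compound exposure; 100% = DMSO vehicle-treated spheroids so lower means less viable.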

## CC1(C)CCC(CN2CCN(c3ccc(C(=O)NS(=O)(=O)c4ccc(NCC5CCOCC5)c([N+](=O)[O-])c4)c(Oc4cnc5[nH]ccc5c4)c3)CC2)=C(c2ccc(Cl)cc2)C1 + C=CC(=O)N1CCN(c2nc(=O)n(-c3c(C)ccnc3C(C)C)c3nc(-c4c(O)cccc4F)c(F)cc23)C(C)C1
Second compound 0.1 µM
  IC50: 1890 nM
Second compound 0.316 µM
  IC50: 2100 nM
Second compound 1 µM
  IC50: 1950 nM
Second compound 3.16 µM
  IC50: 1690 nM
Second compound 10 µM
  IC50: 373 nM
[1]
  viability, T/C: 107%
[2]
  viability, T/C: 89.6%
[3]
  viability, T/C: 90.8%
[4]
  viability, T/C: 108%
[5]
  viability, T/C: 10.6%
[6]
  viability, T/C: 0.45%
[7]
  viability, T/C: 97.7%
[8]
  viability, T/C: 104%
[9]
  viability, T/C: 102%
[10]
  viability, T/C: 98.5%
[11]
  viability, T/C: 23.3%
[12]
  viability, T/C: 1.48%
[13]
  viability, T/C: 97.8%
[14]
  viability, T/C: 97.9%
[15]
  viability, T/C: 94.1%
[16]
  viability, T/C: 106%
[17]
  viability, T/C: 14.3%
[18]
  viability, T/C: 0.49%
[19]
  viability, T/C: 99.9%
[20]
  viability, T/C: 110%
[21]
  viability, T/C: 96.7%
[22]
  viability, T/C: 85%
[23]
  viability, T/C: 8.01%
[24]
  viability, T/C: 0.76%
[25]
  viability, T/C: 61.1%
[26]
  viability, T/C: 69.4%
[27]
  viability, T/C: 48.6%
[28]
  viability, T/C: 32%
[29]
  viability, T/C: 1.91%
[30]
  viability, T/C: 0.62%

## COC(=O)c1ccc2c(C(=Nc3ccc(N(C)C(=O)CN4CCN(C)CC4)cc3)c3ccccc3)c(O)[nH]c2c1 + CC1OCC2(CCN(c3cnc(Sc4ccnc(N)c4Cl)c(N)n3)CC2)C1N
Second compound 0.1 µM
  IC50: 2140 nM
Second compound 0.316 µM
  IC50: 1850 nM
Second compound 1 µM
  IC50: 1510 nM
Second compound 3.16 µM
  IC50: 692 nM
Second compound 10 µM
  IC50: 368 nM
[1]
  viability, T/C: 105%
[2]
  viability, T/C: 108%
[3]
  viability, T/C: 116%
[4]
  viability, T/C: 120%
[5]
  viability, T/C: 18%
[6]
  viability, T/C: 12.9%
[7]
  viability, T/C: 108%
[8]
  viability, T/C: 105%
[9]
  viability, T/C: 113%
[10]
  viability, T/C: 98.9%
[11]
  viability, T/C: 4.62%
[12]
  viability, T/C: 10.2%
[13]
  viability, T/C: 116%
[14]
  viability, T/C: 108%
[15]
  viability, T/C: 100%
[16]
  viability, T/C: 74.8%
[17]
  viability, T/C: 4.4%
[18]
  viability, T/C: 4.44%
[19]
  viability, T/C: 103%
[20]
  viability, T/C: 93.2%
[21]
  viability, T/C: 94%
[22]
  viability, T/C: 29.4%
[23]
  viability, T/C: 1.17%
[24]
  viability, T/C: 1.68%
[25]
  viability, T/C: 83%
[26]
  viability, T/C: 82%
[27]
  viability, T/C: 54.5%
[28]
  viability, T/C: 15.6%
[29]
  viability, T/C: 0.48%
[30]
  viability, T/C: 0.71%

## CC1(C)CCC(CN2CCN(c3ccc(C(=O)NS(=O)(=O)c4ccc(NCC5CCOCC5)c([N+](=O)[O-])c4)c(Oc4cnc5[nH]ccc5c4)c3)CC2)=C(c2ccc(Cl)cc2)C1 + C=CC(=O)N1CCN(c2nc(OCC3CCCN3C)nc3c2CCN(c2cccc4cccc(C)c24)C3)CC1CC#N
Second compound 0.0316 µM
  IC50: 2130 nM
Second compound 0.1 µM
  IC50: 2240 nM
Second compound 0.316 µM
  IC50: 1950 nM
Second compound 1 µM
  IC50: 1770 nM
Second compound 3.16 µM
  IC50: < 31.6 nM
Second compound 0.0316 µM, first compound 0.0316 µM
  viability, T/C: 101%
Second compound 0.0316 µM, first compound 0.1 µM
  viability, T/C: 107%
Second compound 0.0316 µM, first compound 0.316 µM
  viability, T/C: 110%
Second compound 0.0316 µM, first compound 1 µM
  viability, T/C: 117%
Second compound 0.0316 µM, first compound 3.16 µM
  viability, T/C: 19.4%
Second compound 0.0316 µM, first compound 10 µM
  viability, T/C: 3.14%
[1]
  viability, T/C: 115%
[2]
  viability, T/C: 105%
[3]
  viability, T/C: 112%
[4]
  viability, T/C: 108%
[5]
  viability, T/C: 25%
[6]
  viability, T/C: 4.15%
[7]
  viability, T/C: 114%
[8]
  viability, T/C: 108%
[9]
  viability, T/C: 97.8%
[10]
  viability, T/C: 105%
[11]
  viability, T/C: 10.8%
[12]
  viability, T/C: 0.82%
[13]
  viability, T/C: 119%
[14]
  viability, T/C: 101%
[15]
  viability, T/C: 115%
[16]
  viability, T/C: 98.2%
[17]
  viability, T/C: 0.67%
[18]
  viability, T/C: 0.35%
[19]
  viability, T/C: 0.28%
[20]
  viability, T/C: 1.07%
[21]
  viability, T/C: 0.22%
[22]
  viability, T/C: 0.18%
[23]
  viability, T/C: 0.13%
[24]
  viability, T/C: 0.17%

## CC(=O)Nc1cccc(-n2c(=O)n(C3CC3)c(=O)c3c(Nc4ccc(I)cc4F)n(C)c(=O)c(C)c32)c1 + CNCc1ccccc1-c1csc(C(C)Nc2nc(C)nc3cc(OC)c(OC)cc23)c1
Second compound 0.1 µM
  IC50: 0.52 nM
Second compound 0.316 µM
  IC50: 0.302 nM
Second compound 1 µM
  IC50: 0.245 nM
Second compound 3.16 µM
  IC50: < 0.1 nM
Second compound 10 µM
  IC50: < 0.1 nM
Second compound 0.1 µM, first compound 0.0001 µM
  viability, T/C: 109%
Second compound 0.1 µM, first compound 0.000316 µM
  viability, T/C: 75.5%
Second compound 0.1 µM, first compound 0.001 µM
  viability, T/C: 16.4%
Second compound 0.1 µM, first compound 0.00316 µM
  viability, T/C: 4.46%
Second compound 0.1 µM, first compound 0.01 µM
  viability, T/C: 2.28%
[1]
  viability, T/C: 1.31%
Second compound 0.316 µM, first compound 0.0001 µM
  viability, T/C: 103%
Second compound 0.316 µM, first compound 0.000316 µM
  viability, T/C: 47.9%
Second compound 0.316 µM, first compound 0.001 µM
  viability, T/C: 10.8%
Second compound 0.316 µM, first compound 0.00316 µM
  viability, T/C: 3.37%
Second compound 0.316 µM, first compound 0.01 µM
  viability, T/C: 1.77%
[7]
  viability, T/C: 1.09%
Second compound 1 µM, first compound 0.0001 µM
  viability, T/C: 115%
Second compound 1 µM, first compound 0.000316 µM
  viability, T/C: 31.3%
Second compound 1 µM, first compound 0.001 µM
  viability, T/C: 6.94%
Second compound 1 µM, first compound 0.00316 µM
  viability, T/C: 1.83%
Second compound 1 µM, first compound 0.01 µM
  viability, T/C: 1.15%
[13]
  viability, T/C: 0.51%
Second compound 3.16 µM, first compound 0.0001 µM
  viability, T/C: 40.6%
Second compound 3.16 µM, first compound 0.000316 µM
  viability, T/C: 0.37%
Second compound 3.16 µM, first compound 0.001 µM
  viability, T/C: 0.04%
Second compound 3.16 µM, first compound 0.00316 µM
  viability, T/C: 0.02%
Second compound 3.16 µM, first compound 0.01 µM
  viability, T/C: 0.02%
[19]
  viability, T/C: 0.11%
Second compound 10 µM, first compound 0.0001 µM
  viability, T/C: 0.14%
Second compound 10 µM, first compound 0.000316 µM
  viability, T/C: 0.11%
Second compound 10 µM, first compound 0.001 µM
  viability, T/C: 0.1%
Second compound 10 µM, first compound 0.00316 µM
  viability, T/C: 0.1%
Second compound 10 µM, first compound 0.01 µM
  viability, T/C: 0.11%
[25]
  viability, T/C: 0.18%

## Cn1nccc1Nc1nccc(-c2cc3c(s2)C(C)(C)N(CCN2CCOCC2)C3=O)n1 + CC1OCC2(CCN(c3cnc(Sc4ccnc(N)c4Cl)c(N)n3)CC2)C1N
Second compound 0.1 µM
  IC50: 306 nM
Second compound 0.316 µM
  IC50: 219 nM
Second compound 1 µM
  IC50: 224 nM
Second compound 3.16 µM
  IC50: 176 nM
Second compound 10 µM
  IC50: 77.4 nM
[1]
  viability, T/C: 106%
[2]
  viability, T/C: 107%
[3]
  viability, T/C: 48.3%
[4]
  viability, T/C: 9.06%
[5]
  viability, T/C: 4.04%
[6]
  viability, T/C: 5.66%
[7]
  viability, T/C: 104%
[8]
  viability, T/C: 114%
[9]
  viability, T/C: 22.5%
[10]
  viability, T/C: 7.68%
[11]
  viability, T/C: 2.95%
[12]
  viability, T/C: 4.77%
[13]
  viability, T/C: 106%
[14]
  viability, T/C: 114%
[15]
  viability, T/C: 24.3%
[16]
  viability, T/C: 4.22%
[17]
  viability, T/C: 2.3%
[18]
  viability, T/C: 3.66%
[19]
  viability, T/C: 118%
[20]
  viability, T/C: 85.6%
[21]
  viability, T/C: 13%
[22]
  viability, T/C: 2.81%
[23]
  viability, T/C: 1.49%
[24]
  viability, T/C: 2.19%
[25]
  viability, T/C: 86.8%
[26]
  viability, T/C: 39.5%
[27]
  viability, T/C: 5.87%
[28]
  viability, T/C: 2.69%
[29]
  viability, T/C: 1.11%
[30]
  viability, T/C: 1.69%
